Assay results reported in patent US20230019491A1, “PYRIMIDINE TBK/IKKe INHIBITOR COMPOUNDS AND USES THEREOF” (Merck Patent GmbH, priority 2017, published 2023).

What was measured:
TBK1 = target: T1, TBK1 (Homo sapiens, UniProt Q9UHD2); experiment: TBK biochemical assay; conditions: 10 point 1:4 dose response, 30 uM top concentration, 90 min at 25° C., LabChip EZ Reader II; read-out: TBK1_IC50
T1 sequence (Q9UHD2 1-729): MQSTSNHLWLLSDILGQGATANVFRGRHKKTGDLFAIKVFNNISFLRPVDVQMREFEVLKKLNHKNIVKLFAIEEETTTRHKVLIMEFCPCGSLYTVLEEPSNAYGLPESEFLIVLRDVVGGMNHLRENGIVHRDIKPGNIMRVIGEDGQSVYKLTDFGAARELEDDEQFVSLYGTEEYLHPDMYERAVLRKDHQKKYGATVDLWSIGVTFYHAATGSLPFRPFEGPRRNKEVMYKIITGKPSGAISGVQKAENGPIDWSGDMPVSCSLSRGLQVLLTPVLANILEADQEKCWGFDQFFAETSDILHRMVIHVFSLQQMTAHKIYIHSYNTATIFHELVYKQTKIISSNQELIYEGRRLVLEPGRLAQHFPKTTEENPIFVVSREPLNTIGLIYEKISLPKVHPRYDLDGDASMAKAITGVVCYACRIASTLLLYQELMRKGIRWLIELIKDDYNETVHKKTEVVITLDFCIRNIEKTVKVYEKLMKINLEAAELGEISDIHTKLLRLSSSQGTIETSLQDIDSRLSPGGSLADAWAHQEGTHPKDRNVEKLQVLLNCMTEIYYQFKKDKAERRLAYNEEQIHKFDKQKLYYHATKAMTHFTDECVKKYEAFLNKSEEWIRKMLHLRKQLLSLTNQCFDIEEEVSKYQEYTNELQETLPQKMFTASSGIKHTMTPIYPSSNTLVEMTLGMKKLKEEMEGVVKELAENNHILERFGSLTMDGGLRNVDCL
Outline: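 Substrate and product were separated and quantified by microfluidic mobility-shift read (LabChip). 10 uM staurosporine served as the full-inhibition control, and the reference compound was tested from 1 uM final.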

IKKε = target: T2, IKKε (Homo sapiens, UniProt Q14164); experiment: IKKε biochemical assay; conditions: 10 point 1:4 dose response, 30 uM top concentration, 90 min at 25° C., LabChip EZ Reader II; read-out: IKKε_IC50
T2 sequence (Q14164 1-716): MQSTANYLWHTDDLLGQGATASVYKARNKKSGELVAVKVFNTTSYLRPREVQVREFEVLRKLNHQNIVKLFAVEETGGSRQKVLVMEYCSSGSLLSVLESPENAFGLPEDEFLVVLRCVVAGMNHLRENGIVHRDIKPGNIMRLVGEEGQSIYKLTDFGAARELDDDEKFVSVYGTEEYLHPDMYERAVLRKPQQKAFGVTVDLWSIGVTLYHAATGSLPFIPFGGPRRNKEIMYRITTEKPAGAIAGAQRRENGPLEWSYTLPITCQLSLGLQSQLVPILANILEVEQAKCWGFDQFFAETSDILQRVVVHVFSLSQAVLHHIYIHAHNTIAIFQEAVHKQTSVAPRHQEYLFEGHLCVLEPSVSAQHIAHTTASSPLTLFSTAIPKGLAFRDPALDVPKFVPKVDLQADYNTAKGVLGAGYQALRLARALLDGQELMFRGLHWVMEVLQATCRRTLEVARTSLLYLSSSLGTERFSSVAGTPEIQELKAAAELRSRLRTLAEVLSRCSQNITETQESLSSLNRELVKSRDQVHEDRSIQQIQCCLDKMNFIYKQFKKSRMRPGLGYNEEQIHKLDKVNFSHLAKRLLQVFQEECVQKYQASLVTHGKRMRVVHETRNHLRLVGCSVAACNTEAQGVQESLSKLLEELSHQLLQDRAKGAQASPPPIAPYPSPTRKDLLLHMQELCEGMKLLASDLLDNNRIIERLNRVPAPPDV
Outline: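 Compounds in 1% DMSO final were incubated with IKKε enzyme and substrate at 25° C. for 90 min, then stopped. Substrate and product peaks were resolved by LabChip EZ Reader II mobility-shift read-out. Staurosporine at 10 uM final served as the full-inhibition control.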

IC50 (TBK1) | IC50 (IKKε) | SMILES
< 100 nM | < 100 nM | COc1nc(Nc2nccc(-c3ccc(OC4CCN(C(=O)[C@H](C)OC)CC4(F)F)c(C#N)c3)n2)ccc1N1CCN(C2COC2)CC1 (stereo partly drawn) [Example 246, 2-[3,3-Difluoro-1-((S)-2-methoxy-propionyl)-piperidin-4-yloxy]-5-{2-[6-methoxy-5-(4-oxetan-3-yl-piperazin-1-yl)-pyridin-2-ylamino]-pyrimidin-4-yl}-benzonitrile]
< 100 nM | < 100 nM | COc1nc(Nc2nccc(-c3ccc(O[C@H]4CCN(C(=O)[C@H](C)O)CC4(F)F)c(C#N)c3)n2)ccc1N1CCN(C2COC2)[C@@H](C)C1 [Example 247, 2 2-[(S)-3,3-Difluoro-1-((S)-2-hydroxy-propionyl)-piperidin-4-yloxy]-5-{2-[6-methoxy-5-((S)-3-methyl-4-oxetan-3-yl-piperazin-1-yl)-pyridin-2-ylamino]-pyrimidin-4-yl}-benzonitrile]
< 100 nM | < 100 nM | COc1nc(Nc2nccc(-c3ccc(O[C@@H]4CCN(C(=O)[C@H](C)O)CC4(F)F)c(C#N)c3)n2)ccc1N1CCN(C2COC2)[C@@H](C)C1 [Example 248, 2 2-[(R)-3,3-Difluoro-1-((S)-2-hydroxy-propionyl)-piperidin-4-yloxy]-5-{2-[6-methoxy-5-((S)-3-methyl-4-oxetan-3-yl-piperazin-1-yl)-pyridin-2-ylamino]-pyrimidin-4-yl}-benzonitrile]
< 100 nM | < 100 nM | CCOc1nc(Nc2nccc(-c3ccc(OC4CCN(C(=O)[C@H](C)O)CC4(F)F)c(C#N)c3)n2)ccc1N1CCN(C2COC2)CC1 (stereo partly drawn) [Example 249, 2-([33-difluoro-1-[(2S)-2-hydroxypropanoyl]piperidin-4-yl]oxy)-5-[2-([6-ethoxy-5-[4-(oxetan-3-yl)piperazin-1-yl]pyridin-2-yl]amino)pyrimidin-4-yl]benzonitrile]
< 100 nM | < 100 nM | COc1nc(Nc2nccc(-c3ccc(OC4CCN(C(=O)C(C)C#N)CC4(F)F)c(C#N)c3)n2)ccc1N1CCN(C2COC2)CC1 (stereo not shown) [Example 251, 2-[1-(2-Cyano-2-methyl-acetyl)-33-difluoro-piperidin-4-yloxy]-5-{2-[6-methoxy-5-(4-oxetan-3-yl-piperazin-1-yl)-pyridin-2-ylamino]-pyrimidin-4-yl}-benzonitrile]
< 100 nM | < 100 nM | COc1nc(Nc2nccc(-c3ccc(OC4CCN(C(=O)[C@@H](C)CO)CC4(F)F)c(C#N)c3)n2)ccc1N1CCN(C2COC2)CC1 (stereo partly drawn) [Example 252, 2-[3,3-Difluoro-1-((S)-3-hydroxy-2-methyl-propionyl)-piperidin-4-yloxy]-5-{2-[6-methoxy-5-(4-oxetan-3-yl-piperazin-1-yl)-pyridin-2-ylamino]-pyrimidin-4-yl}-benzonitrile]

More lines, now with the values behind:

SMILES | IC50 (TBK1) | IC50 (IKKε)
COc1nc(Nc2nccc(-c3ccc(OC4CCN(C(=O)C(O)C5CC5)CC4(F)F)c(C#N)c3)n2)ccc1C1CCN(C2COC2)CC1 (stereo not shown) [Example 239, 2-[1-(2-Cyclopropyl-2-hydroxy-acetyl)-3,3-difluoro-piperidin-4-yloxy]-5-[2-(2-methoxy-1′-oxetan-3-yl-1′,2′,3′,4′,5′,6′-hexahydro-[3,4′]bipyridinyl-6-ylamino)-pyrimidin-4-yl]-benzonitrile] | < 100 nM | < 100 nM
COc1cccc(Nc2nccc(-c3ccc(O[C@H]4CCN(C(=O)[C@H](C)O)CC4(F)F)c(C#N)c3)n2)n1 [Example 240, 2-[[(4S)-3,3-difluoro-1-[(2S)-2-hydroxypropanoyl]piperidin-4-yl]oxy]-5-[2-[(6-methoxypyridin-2-yl)amino]pyrimidin-4-yl]benzonitrile] | 100 to 1000 nM | 100 to 1000 nM
COc1cccc(Nc2nccc(-c3ccc(O[C@@H]4CCN(C(=O)[C@H](C)O)CC4(F)F)c(C#N)c3)n2)n1 [Example 241, 2-[[(4R)-3,3-difluoro-1-[(2S)-2-hydroxypropanoyl]piperidin-4-yl]oxy]-5-[2-[(6-methoxypyridin-2-yl)amino]pyrimidin-4-yl]benzonitrile] | < 100 nM | < 100 nM
COc1cccc(Nc2nccc(-c3ccc(OC4CCN(C(=O)[C@@H](O)CO)CC4(F)F)c(C#N)c3)n2)n1 (stereo partly drawn) [Example 242, 2-[1-((S)-2,3-Dihydroxy-propionyl)-3,3-difluoro-piperidin-4-yloxy]-5-[2-(6-methoxy-pyridin-2-ylamino)-pyrimidin-4-yl]-benzonitrile] | < 100 nM | < 100 nM
N#Cc1cc(-c2ccnc(Nc3ccccn3)n2)ccc1OC1CCN(C(=O)[C@@H](O)CO)CC1(F)F (stereo partly drawn) [Example 243, 2-[1-((S)-2,3-Dihydroxy-propionyl)-3,3-difluoro-piperidin-4-yloxy]-5-[2-(pyridin-2-ylamino)-pyrimidin-4-yl]-benzonitrile] | < 100 nM | < 100 nM
COc1ccc(Nc2nccc(-c3ccc(OC4CCN(C(=O)[C@@H](O)CO)CC4(F)F)c(C#N)c3)n2)nc1OC (stereo partly drawn) [Example 244, 2-[1-((S)-2,3-Dihydroxy-propionyl)-3,3-difluoro-piperidin-4-yloxy]-5-[2-(5,6-dimethoxy-pyridin-2-ylamino)-pyrimidin-4-yl]-benzonitrile] | < 100 nM | < 100 nM
C[C@H](O)C(=O)N1CCC(Oc2ccc(-c3ccnc(Nc4ccc(N5CCN(C6COC6)CC5)cn4)n3)cc2C#N)C(F)(F)C1 (stereo partly drawn) [Example 245, 2-([33-difluoro-1-[(2S)-2-hydroxypropanoyl]piperidin-4-yl]oxy)-5-[2-([5-[4-(oxetan-3-yl)piperazin-1-yl]pyridin-2-yl]amino)pyrimidin-4-yl]benzonitrile] | < 100 nM | < 100 nM
COc1nc(Nc2nccc(-c3ccc(OC4CCN(C(=O)C5CCO5)CC4(F)F)c(C#N)c3)n2)ccc1N1CCN(C2COC2)CC1 (stereo not shown) [Example 250, 2-[3,3-Difluoro-1-(oxetane-2-carbonyl)-piperidin-4-yloxy]-5-{2-[6-methoxy-5-(4-oxetan-3-yl-piperazin-1-yl)-pyridin-2-ylamino]-pyrimidin-4-yl}-benzonitrile] | < 100 nM | < 100 nM
COc1nc(Nc2nccc(-c3ccc(OC4CCN(C(=O)CC#N)CC4(F)F)c(C#N)c3)n2)ccc1N1CCN(C2COC2)CC1 (stereo not shown) [Example 253, 2-[1-(2-Cyano-acetyl)-3,3-difluoro-piperidin-4-yloxy]-5-{2-[6-methoxy-5-(4-oxetan-3-yl-piperazin-1-yl)-pyridin-2-ylamino]-pyrimidin-4-yl}-benzonitrile] | < 100 nM | < 100 nM
COc1nc(Nc2nccc(-c3ccc(OC4CCN(C(=O)[C@@H]5CCCO5)CC4(F)F)c(C#N)c3)n2)ccc1N1CCN(C2COC2)CC1 (stereo partly drawn) [Example 254, 2-[3,3-Difluoro-1-((S)-tetrahydro-furan-2-carbonyl)-piperidin-4-yloxy]-5-{2-[6-methoxy-5-(4-oxetan-3-yl-piperazin-1-yl)-pyridin-2-ylamino]-pyrimidin-4-yl}-benzonitrile] | < 100 nM | < 100 nM
COc1nc(Nc2nccc(-c3ccc(OC4CCN(C(=O)[C@@H]5CC5(F)F)CC4(F)F)c(C#N)c3)n2)ccc1N1CCN(C2COC2)CC1 (stereo partly drawn) [Example 255, 2-[1-((S)-2,2-Difluoro-cyclopropanecarbonyl)-3,3-difluoro-piperidin-4-yloxy]-5-{2-[6-methoxy-5-(4-oxetan-3-yl-piperazin-1-yl)-pyridin-2-ylamino]-pyrimidin-4-yl}-benzonitrile] | < 100 nM | < 100 nM
